“Also recorded” adds a separate entry of the source.
Columns and labels:
PBX1 = PBX1 mRNA and protein levels by qRT-PCR and western blot in B16-F10 cells; assay type: cell-based, mouse; details: for mRNA level of PBX1: qRT-PCR; for protein level of PBX1: western blot, normalized to GAPDH
Procedure: RNA extraction and quantitative RT-PCR detection: total RNA is extracted from cultured cells by using TRIzol (Invitrogen, USA), then is converted into cDNA by SuperScript III First-Strand Synthesis SuperMix (Invitrogen, USA). qRT-PCR detection is performed by using SYBR Green®Mix (Invitrogen, USA) in ABI 7500 (Invitrogen, USA). A relative expression quantity of RNA is calculated by using a comparative CT method.
Immunoblotting: for protein analysis of a whole-cell lysate, cells are lysed with RIPA (CWBIO, Beijing, China) buffer solution. For tumors, liquid nitrogen is first used to pulverize tissues. Then, the lysate is generated on ice with the RIPA (CWBIO, Beijing, China) buffer solution for 20 minutes, and then centrifuged at 4° C., 13000 rpm for 15 minutes. Protein-containing supernatant is transferred to the fresh microcentrifuge tube, and stored at −20° C. (short-term storage) for subsequent use. The protein is quantified by using the BIO-RAD DC protein assay. The total proteins are electrophoresed on SDS-polyacrylamide gels. Then, the proteins are transferred to polyvinylidene difluoride (PVDF) membrane. After incubation with the primary antibody overnight on the shaker at 4° C., the membrane is washed 6 times (5 minutes each time) with TBS-T (Invitrogen, USA). Then, blots are incubated with horseradish peroxidase (IRP)-conjugated secondary antibodies for 60 minutes at RT on the plate shaker. The membrane is cleaned by TBS-T (6×5 minutes). Detection on immunoreactive bands is performed by using SuperSignalmWest Pico chemiluminescence substrate kit (Thermo Fisher Scientific, USA) and Western blotting detection system (BioRad, USA). GAPDH is used as the loading control for western blotting. The intensity levels of the bands are normalized to GAPDH.

A375 melanoma cells = test: In vivo tumor growth experiment, A375 xenograft in nude mice
Procedure: In vivo tumor growth experiment: to evaluate the effect of PBX1 on growth of in vivo tumors, before inoculation, male nude mice of 6 weeks (BALB/C background) are randomly divided into designated groups (5 per group). 1×10^6 A375 melanoma cells are injected subcutaneously into the upper flank of the back of each mouse. After injection, the mice are administered with PDS drug for treatment for 21 days (once every two days), and after the mice are sacrificed, the tumor weight is measured.
(§1) Bioluminescent tumor cell tracking: in vivo whole-animal imaging, anesthetized mice are injected intraperitoneally with 3 mg of d-luciferin (MCE, USA). Luminescence data is collected on an IVIS system (Perkin Elmer, USA). For live tissue imaging, tissues are perfused with PBS, harvested, and incubated in PBS with 1 μg/ml-1d-luciferin. Data analysis is performed using an IVIS Image software package.

B16-F10 cells = test: In vivo tumor metastasis assay, B16-F10 tail vein injection; design: species or system mice; details: B16-F10 tail vein; PDS 5 mg/kg twice a day, 16 consecutive days
Procedure: In vivo tumor metastasis assay: 2×10^5 B16-F10 cells are injected into the tail vein of tail vein tumor. According to solutions formulated by the NCI Animal Care and Use Committee, metastatic endpoints are determined for each experiment by maximal primary tumor burden and/or appearance of moribund mice in all treatment groups. PDS (5 mg/kg) is administered twice a day, for 16 consecutive days.
as §1

[1] = tested on: patient-derived melanoma xenograft (PDX); test: PDX model of melanoma in NCG mice; assay type: in vivo; details: PDX; intravenous injection 20 mg/kg every two days for 21 days; vs PBX1 ASO scramble
Procedure: PDX model of melanoma: fresh tumor tissues are collected immediately after surgery, placed in RPMI 1640 medium containing penicillin/streptomycin (100 U/ml; 100 μg/ml), fungal zone (1 μg/ml) and Genta Mycin (50 μg/ml) (all from Gibco, USA) (4,5). According to the institutional review and the ethical guidelines for this study approved by the Ethics Committee of the Second Hospital of Jilin University, fresh tumor samples from patients suffering from melanoma are collected for transplantation with informed consent. The mice were kept and all procedures are performed under the approval and supervision of the Institutional Animal Care and Use Committee (IACUC) of the School of Public Health of Jilin University (Changchun, China). Necrotic tissues are excised before transplantation, and tumor tissues are minced to a size of 2×2×2 mm^3, and implanted subcutaneously in the flank of 6-week-old NCG male mice to generate first-generation (F1) PDX mice. Successfully transplanted tumor models are passaged and stored using standard methods. H&E staining is used to evaluate the morphology of patient tumor specimens and xenografts of established PDX models. Treatment with ASO Scr or ASO (intravenous injection, 20 mg/kg) is initiated when the tumor volume of the mice reached 220-280 mm^3. Tumor growth and body weight measurements are performed. Tumors are dissected at the end of treatment for further processing for RNA, protein and histological analysis.
Control:mG*mT*mC*mC*mA*mC*mA*mA*mA*mC*mA*mC*mA*mA*mC*mT*mC* mC*mT*mG*). […] This example also establishes short-term cultures of patient-derived melanoma xenograft (PDX)-derived tumor cells (PDCs) (FIG. 5D). […] To further expand the analysis, this embodiment establishes the PDX model of melanoma, and […] is administered intravenously (intravenous injection) every two days for 21 days.

Structure (SMILES) | mRNA level of PBX1 (PBX1) | protein level of PBX1 (PBX1) | growth of xenograft tumors (A375 melanoma cells; A375 subcutaneous, nude mice, treatment 21 days once every two days) | expression of PBX1 in xenograft tumors (A375 melanoma cells; qRT-PCR and IHC staining) | metastasis of xenograft tumors (lung) (B16-F10 cells) | tumor growth [1]
NCCOc1cc(C(=O)Nc2cc(OCCN)c3ccccc3n2)nc(C(=O)Nc2cc(OCCN)c3ccccc3n2)c1 [PDS, Pyridostatin] | inhibit; also recorded: remarkably reduces | inhibit; also recorded: remarkably reduces | remarkably inhibits | downregulating | remarkably inhibits | inhibits
C[n+]1ccc(-c2c3nc(c(-c4cc[n+](C)cc4)c4ccc([nH]4)c(-c4cc[n+](C)cc4)c4ccc([nH]4)c(-c4cc[n+](C)cc4)c4nc2C=C4)C=C3)cc1 [TMPyP4] | inhibit; also recorded: remarkably reduces | inhibit; also recorded: remarkably reduces | – | – | – | –
